In PubChem BioAssay (NCI):
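Interpolation was linear, between the two tested concentrations surrounding the appropriate level; five concentrations were tested over 48 hours in 96-well plates. GI50 marks 50% less growth. TGI: total growth inhibition.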

Columns and labels:
Test in all cases: NCI tumour cell line growth inhibition, 48 h
CCRF-CEM leukemia = system: CCRF-CEM leukemia
OVCAR-8 ovarian = system: OVCAR-8 ovarian
IGROV1 ovarian = system: IGROV1 ovarian
HOP-92 NSCLC = system: HOP-92 NSCLC
UACC-62 melanoma = system: UACC-62 melanoma
HCC-2998 colon = system: HCC-2998 colon
NCI-H460 lung = system: NCI-H460 lung
NCI/ADR-RES ovarian = system: NCI/ADR-RES ovarian
SF-295 CNS = system: SF-295 CNS
OVCAR-5 ovarian = system: OVCAR-5 ovarian

| Compound | GI50 (CCRF-CEM leukemia) | TGI (CCRF-CEM leukemia) | GI50 (OVCAR-8 ovarian) | TGI (OVCAR-8 ovarian) | GI50 (IGROV1 ovarian) | TGI (IGROV1 ovarian) | GI50 (HOP-92 NSCLC) | TGI (HOP-92 NSCLC) | GI50 (UACC-62 melanoma) | TGI (UACC-62 melanoma) | GI50 (HCC-2998 colon) | TGI (HCC-2998 colon) | GI50 (NCI-H460 lung) | TGI (NCI-H460 lung) | GI50 (NCI/ADR-RES ovarian) | TGI (NCI/ADR-RES ovarian) | GI50 (SF-295 CNS) | TGI (SF-295 CNS) | TGI (OVCAR-5 ovarian) | GI50 (OVCAR-5 ovarian) |
| --- | --- | --- | --- | --- | --- | --- | --- | --- | --- | --- | --- | --- | --- | --- | --- | --- | --- | --- | --- | --- |
| CN1C(NC(=O)c2ccc(Cl)nc2)=NS(=O)(=O)c2cc(Cl)ccc21 | > 100 µM | > 100 µM | > 100 µM | > 100 µM | > 100 µM | > 100 µM | > 100 µM | > 100 µM | > 100000 nM | > 100 µM | > 100 µM | > 100 µM | > 100 µM | > 100 µM | > 100 µM | > 100 µM | > 100 µM | > 100 µM |  |  |
| O=C(O)c1cc(N=Nc2ccc([As](=O)(O)O)cc2)ccc1O |  | > 100 µM |  | > 100 µM |  | > 100 µM |  |  |  | > 100 µM |  | > 100 µM |  | > 100 µM |  | > 100 µM |  | > 100 µM | > 100 µM |  |
| Cn1cc(C2=C(c3cn(C)c4c(N)cccc34)C(=O)NC2=O)c2ccccc21 | 0.797 µM | > 25 µM | 2.85 µM | > 25 µM | 4.2 µM | > 19.6 µM |  |  | 2480 nM | 18.1 µM | 6.01 µM | > 25 µM | 1.08 µM | > 25 µM | 2.02 µM | > 25 µM | 0.898 µM | > 11.6 µM | > 22.1 µM | 6.41 µM |
| CCCCC/C=C/C/C=C/CCCCCCCC1=NC(C)(C)CN1C(C)C |  |  |  |  | 1.23 µM | 2.47 µM | 1.31 µM | 3.37 µM | 1690 nM | 3.12 µM | 1.67 µM | 3.06 µM | 1.82 µM | 3.34 µM | 2.32 µM | 7.44 µM | 1.49 µM | 2.83 µM | 4.1 µM | 1.87 µM |
| COc1ccc2cc(C(=O)/C=C/c3cccc(OC)c3OC)ccc2c1 | 5.46 µM | > 100 µM | 8.88 µM | 33.6 µM |  |  | 36.2 µM | > 100 µM | 2770 nM | 11 µM | 14.2 µM | 27.2 µM | 18.3 µM | 37.5 µM | 6.57 µM | 34.3 µM |  |  | 40.7 µM | 20.2 µM |
| Cn1cc(C2=C(c3cn(CCCN=C(N)N)c4ccccc34)C(=O)NC2=O)c2ccccc21 | > 25 µM | > 25 µM | > 25 µM | > 25 µM | 14.8 µM | > 25 µM |  |  | > 25000 nM | > 25 µM | > 25 µM | > 25 µM | > 25 µM | > 25 µM | > 25 µM | > 25 µM | > 25 µM | > 25 µM | > 25 µM | > 25 µM |
| COc1cc(C(=O)O[C@H](C(N)=O)[C@]2(C)CO2)c2ccccc2c1 | 10.9 µM | 58 µM | 5.87 µM | 25.3 µM | 34.6 µM | 98.4 µM | 20.3 µM | 50.6 µM | 15900 nM | 29.8 µM |  |  | 10.4 µM | 57.1 µM | 12.3 µM | 30.3 µM | 20.4 µM | 37.9 µM | 33.1 µM | 11.5 µM |
